Patent US20190010380A1, “METHOD FOR CONTROLLING BACTERIA IN FORMATIONS USING MOLYBDATE” (priority 2017, published 2019)
Several values for one entry are separate records, joined by “and”; a condition that tells them apart may be missing. Equal values may be shown once.

Experiments:
SRB [1] = assay: Hydrogen sulfide inhibition in actual produced water from the Eagle Ford shale diluted to 3%, spiked with SRB; format: cell-based, sulfate-reducing bacteria (SRB)
Description: (§1) Hydrogen sulfide inhibition was tested in mock-produced water approximating water used in hydraulic fracturing operations and was made to a total dissolved solids concentration of 3% with a mixture of instant ocean and NaCl salts. The water was supplemented with nutrients and sulfate to allow SRB to metabolize and create H2S. The water was spiked with SRB and then treated with the various treatment conditions noted below in Table 3 and sealed. Treatment conditions were: Control: No biocide or nitrate.
(§2) 250 ppm 12.3 Glut/Quat Biocide: a mixture of glutaraldehyde and a quarternary ammonia compound was prepared NRB Program: (480 ppm Ca(NO3)2 with 1 ppm live NRB culture. 20 ppm, 40 ppm, 50 ppm, 60 ppm, 80 ppm, 100 ppm, 120 ppm, 150 ppm, and 200 ppm molybdate concentration-.
(§3) H2S was measured at intervals using H2S detecting Draeger tubes. Dissolved H2S was released into the gas phase with the addition of hydrochloric acid so that H2S could be measured with the Draeger tubes to get a complete reading of all H2S produced during the course of the example.
Samples were prepared in accordance with Example 1, except that actual produced water sourced from the Eagle Ford shale that was diluted to 3% using deionized water was used in the samples.

SRB [2] = assay: Hydrogen sulfide inhibition in mock-produced water spiked with SRB (Draeger tubes); format: cell-based, sulfate-reducing bacteria (SRB); details: for Total H2S: mock-produced water
Description: as §1, §2, §3

## [O]=[Mo](=[O])([O-])[O-] [MoO4, molybdate]
SRB [1]; 20 ppm MoO4
  Total H2S: 3188 ppm
SRB [1]; 50 ppm MoO4
  Total H2S: 234 ppm
SRB [1]; 80 ppm MoO4
  Total H2S: 172 ppm
SRB [1]; 100 ppm MoO4
  Total H2S: 107 ppm
SRB [1]; 150 ppm MoO4
  Total H2S: 160 ppm
SRB [1]; 200 ppm MoO4
  Total H2S: 110 ppm
SRB [1]; concentrations of 50 ppm and above
  Comparison with Glut/Quat biocide and NRB treatment: competitive with other proven treatments
SRB [1]; molybdate alone, even at lower concentrations
  Effect on H2S formation: caused a strong reduction in H2S formation
SRB [2]; mock produced water, concentrations of 150 ppm and above
  Comparison with Glut/Quat biocide and NRB treatment: competitive with other proven treatments
SRB [2]; mock produced water, molybdate alone, even at lower concentrations
  Effect on H2S formation: caused a reduction in H2S formation
SRB [2]; 20 ppm MoO4
  Total H2S: 1974 ppm
SRB [2]; 40 ppm MoO4
  Total H2S: 1066 ppm
SRB [2]; 50 ppm MoO4
  Total H2S: 2262 ppm and 1536 ppm
SRB [2]; 60 ppm MoO4
  Total H2S: 1846 ppm
SRB [2]; 80 ppm MoO4
  Total H2S: 1866 ppm
SRB [2]; 100 ppm MoO4
  Total H2S: 738 ppm
SRB [2]; 120 ppm MoO4
  Total H2S: 890 ppm
SRB [2]; 150 ppm MoO4
  Total H2S: 176 ppm
SRB [2]; 200 ppm MoO4
  Total H2S: 40 ppm
